In patent US6635802B1, “Nuclear transfer using cells cultured in serum starvation media containing apoptosis inhibitors” (The Texas A&M University System, priority 2000, dated 2003):

Experiments:
Type in all cases: cell-based
[1] = tested on: Porcine embryonic fibroblast (PEF); assay: TUNEL assay (flow cytometry) of serum starved porcine embryonic fibroblasts; conditions: serum starvation 5 days, MAC 0.7 pM, NAC 1 mM, GSH 2 mM, serum starved without inhibitor 26.50
Source text: (§1) Porcine embryonic fibroblast (PEF) were isolated from day 25-28 fetuses according to the methods previously described (Hogan et al., 1994). Briefly, porcine fetuses of day 25-30 (day 0=estrus) were removed from the uterus and rinsed with PBS+penicillin/streptomycin solution (PBS/PS). Head, limbs and internal organs were removed, and the carcasses were minced with razor blades or ground using a syringe head until they were the consistency of sludge. Then these were trypsinized 2-3 times using 0.25% trypsin+EDTA for 20 minutes. The supernatant fraction was removed and centrifuged to collect the cells. The cells were plated using DMEM+10% fetal bovine serum (FBS) and cultured up to 80-90% confluency before further passage.
(§2) Bovine embryonic fibroblasts (BEF) were isolated from the fetus with 3-5 cm crown-rump length. After two or three passages, cells were plated one million cells per plate (100 mm) with growth medium (DMEM) with 2 mM L-glutamine, 0.1 mM β-mercaptoethanol and 10% FBS. After 24 hours, cells were washed with PBS 3-5 times and then serum starvation medium with 0.5% FBS was added. In addition, cells were treated with serum starvation medium containing apoptosis inhibitors such as a2-macroglobulin (0.7 pM), N-acetylcysteine (1 mM) and glutathione (2 mM). Cells were treated with serum starvation with or without apoptosis inhibitors for 5 or 10 days. Then cells were trypsinized and counted.
After counting, cells were fixed and stained according to protocols with the APO-BRDU kit (Phoenix Flow Systems, San Diego, Calif.). […] To determine base line fluorescence, control cells were incubated without TdT. […] Following counterstaining with a propidium iodide/RNase A solution for 30 minutes in the dark, which allows simultaneous analysis of cell cycle position and apoptosis, cells were analyzed on a FACSCalibur™ flow cytometer (Becton Dickinson, San Jose, Calif.). Fluorescence emissions were measured at 582±21 nm for propidium iodide and 530±15 nm for fluorescein, without spectral compensation, after excitation at 488 nm by an argon-ion laser. […]

porcine PGCs [2] = assay: In vitro culture of porcine PGCs on STO feeder cells with apoptosis inhibitors; AP-stained colonies counted
[3] = tested on: Bovine embryonic fibroblasts (BEF); assay: Cell cycle distribution (propidium iodide flow cytometry) of serum starved bovine embryonic fibroblasts; conditions: for Proportion of cells going into G0, in words: addition during the starvation period; for G2/M (%) / S (%): serum starvation 5 days; for G2/M (%) / S (%) / G0/G1 (%): MAC 0.7 pM, NAC 1 mM, GSH 2 mM; for G0/G1 (%): serum starvation (0.5% FBS) 5 days
Experimental: as §2
(§3) Cells (1×10^6) were washed in 0.15 M NaCI, fixed in 70% ethanol, and stored at −20° C. overnight or until ready to be analyzed. For analysis, cells were centrifuged, rinsed with PBS, resuspended in 500 μl of a 0.05 mg/ml propidium iodide/0.1% Triton X-100/0.2 mg/ml RNase A solution, and incubated for a minimum of 30 minutes at room temperature in the dark. Cells were analyzed by flow cytometry to determine DNA content. Modfit LT™ (Verity Software House, Topsham, Me.) was used to model the cell cycle distribution within each sample.

[4] = tested on: Porcine embryonic fibroblast (PEF); assay: Cell cycle distribution (propidium iodide flow cytometry) of serum starved porcine embryonic fibroblasts; conditions: for Proportion of cells going into G0, in words: addition during the starvation period; for G0/G1 (%) / G2/M (%) / S (%): serum starvation 5 days, MAC 0.7 pM, NAC 1 mM, GSH 2 mM
Source text: as §1, §2, §3

porcine PGCs [5] = assay: Porcine PGCs plated in chambered slides in the absence of feeder layers, with or without growth factors; AP-positive cells counted; conditions: for Number of PGCs surviving in culture, in words: absence of feeder layers, 24, 48, 72 hours
Experimental: FIG. 8. Freshly isolated PGCs were plated in chambered slides in the absence of feeder cells and incubated in media with no protease inhibitors or antioxidants (PES), with MAC (MAC) or with NAC (NAC), either with or without growth factors (G), for 24, 48 or 72 hours. Cells were fixed, stained for alkaline phosphatase (AP) as previously described, and counted (normalized to control; left vertical axis).
After culture, colonies were stained, counted and analyzed as described above. To determine the effects of MAC and NAC on porcine PGCs, cells were exposed to those inhibitors during the first half period of culture (4-5 days) or the last half period (4-5 days), respectively. In addition, to determine the effect of MAC and NAC in the absence of feeders, cells were plated on chambered slides previously coated with 0.1% gelatin and medium with or without inhibitors in the presence or absence of growth factors. Cells were fixed, stained for AP and counted at the interval of 24, 48, and 72 hours.
Freshly isolated PGCs were plated in chambered slides in the absence of feeders and incubated in media with or without growth factors (GF) and with or without MAC and NAC. Cells were fixed, stained for AP as previously described, and counted.

mouse ES cells = assay: Culture of mouse ES cells with NAC
[6] = Table 3 combined effects study: MAC 0.7 pM, NAC 1.0 mM, alone or together, normalized to control

Which results are given for `CC(=O)N[C@@H](CS)C(=O)O` [NAC, N-acetylcysteine]?
5-day Apoptosis (%) [1]: 0.06%; Normalized # of Colonies + SE (porcine PGCs [2]; [6]): 2.73 ± 0.03; Proportion of cells going into G0, in words [3]: did not affect the proportion of cells going into G0; G2/M (%) [3]: 10%; S (%) [3]: 2%; G0/G1 (%) [3]: 88%; Proportion of cells going into G0, in words [4]: did not affect the proportion of cells going into G0; G0/G1 (%) [4]: 95%; G2/M (%) [4]: 3%; S (%) [4]: 2%; Rescue of PGCs, in words (porcine PGCs [5]; absence of feeder layers and of growth factors, after 72 hr of culture): able to rescue the PGCs; Number of PGCs surviving in culture, in words (porcine PGCs [5]): increased the number of PGCs surviving in culture; % viable cells, in words (mouse ES cells; in the presence of NAC): not greatly affected; Effect on mouse ES cells, in words (mouse ES cells; normal culture conditions and absence of BME): beneficial effect

B1: α2-macroglobulin (protein, UniProt P01023 24-1474, looked up)
Alpha-2-macroglobulin: SVSGKPQYMVLVPSLLHTETTEKGCVLLSYLNETVTVSASLESVRGNRSLFTDLEAENDVLHCVAFAVPKSSSNEEVMFLTVQVKGPTQEFKKRTTVMVKNEDSLVFVQTDKSIYKPGQTVKFRVVSMDENFHPLNELIPLVYIQDPKGNRIAQWQSFQLEGGLKQFSFPLSSEPFQGSYKVVVQKKSGGRTEHPFTVEEFVLPKFEVQVTVPKIITILEEEMNVSVCGLYTYGKPVPGHVTVSICRKYSDASDCHGEDSQAFCEKFSGQLNSHGCFYQQVKTKVFQLKRKEYEMKLHTEAQIQEEGTVVELTGRQSSEITRTITKLSFVKVDSHFRQGIPFFGQVRLVDGKGVPIPNKVIFIRGNEANYYSNATTDEHGLVQFSINTTNVMGTSLTVRVNYKDRSPCYGYQWVSEEHEEAHHTAYLVFSPSKSFVHLEPMSHELPCGHTQTVQAHYILNGGTLLGLKKLSFYYLIMAKGGIVRTGTHGLLVKQEDMKGHFSISIPVKSDIAPVARLLIYAVLPTGDVIGDSAKYDVENCLANKVDLSFSPSQSLPASHAHLRVTAAPQSVCALRAVDQSVLLMKPDAELSASSVYNLLPEKDLTGFPGPLNDQDNEDCINRHNVYINGITYTPVSSTNEKDMYSFLEDMGLKAFTNSKIRKPKMCPQLQQYEMHGPEGLRVGFYESDVMGRGHARLVHVEEPHTETVRKYFPETWIWDLVVVNSAGVAEVGVTVPDTITEWKAGAFCLSEDAGLGISSTASLRAFQPFFVELTMPYSVIRGEAFTLKATVLNYLPKCIRVSVQLEASPAFLAVPVEKEQAPHCICANGRQTVSWAVTPKSLGNVNFTVSAEALESQELCGTEVPSVPEHGRKDTVIKPLLVEPEGLEKETTFNSLLCPSGGEVSEELSLKLPPNVVEESARASVSVLGDILGSAMQNTQNLLQMPYGCGEQNMVLFAPNIYVLDYLNETQQLTPEIKSKAIGYLNTGYQRQLNYKHYDGSYSTFGERYGRNQGNTWLTAFVLKTFAQARAYIFIDEAHITQALIWLSQRQKDNGCFRSSGSLLNNAIKGGVEDEVTLSAYITIALLEIPLTVTHPVVRNALFCLESAWKTAQEGDHGSHVYTKALLAYAFALAGNQDKRKEVLKSLNEEAVKKDNSVHWERPQKPKAPVGHFYEPQAPSAEVEMTSYVLLAYLTAQPAPTSEDLTSATNIVKWITKQQNAQGGFSSTQDTVVALHALSKYGAATFTRTGKAAQVTIQSSGTFSSKFQVDNNNRLLLQQVSLPELPGEYSMKVTGEGCVYLQTSLKYNILPEKEEFPFALGVQTLPQTCDEPKAHTSFQISLSVSYTGSRSASNMAIVDVKMVSGFIPLKPTVKMLERSNHVSRTEVSSNHVLIYLDKVSNQTLSLFFTVLQDVPVRDLKPAIVKVYDYYETDEFAIAEYNAPCSKDLGNA
Which “5-day Apoptosis (%)” value [1] does the source give for B1 here?
Its value is 11.60%.

What about the “Normalized # of Colonies + SE” value (porcine PGCs [2]; MAC (0.7 pM) 1-4 days (FH), Table 4 timing study) of the same molecule?
The value was 1.21 ± 0.05.

And the “Normalized # of Colonies + SE” value (porcine PGCs [2]; MAC (0.7 pM) 5-8 days (LH), Table 4 timing study)?
The value was 1.23 ± 0.09.

And the “Normalized # of Colonies + SE” value (porcine PGCs [2]; [6])?
Its value is 2.00 ± 0.18.

And the “Normalized # of Colonies + SE” value (porcine PGCs [2]; Table 6 protease inhibitors: MAC 0.7 pM, PA 50 μM, AEBSF 250 μM, TLCK 100 μM, normalized to control)?
Its value is 1.72 ± 0.15.

And the “Proportion of cells going into G0, in words” value [3]?
Its value is “did not affect the proportion of cells going into G0”.

And the “G2/M (%)” value [3]?
The value was 10%.

What about the “S (%)” value [3] of the same molecule?
The value was 5%.

And the “G0/G1 (%)” value [3]?
Its value is 85%.

And the “Proportion of cells going into G0, in words” value [4]?
Its value is “did not affect the proportion of cells going into G0”.

And the “G0/G1 (%)” value [4]?
The value was 95%.

What about the “G2/M (%)” value [4] of the same molecule?
The value was 4%.

What about the “S (%)” value [4] of the same molecule?
Its value is 1%.

What about the “Number of PGCs surviving in culture, in words” value (porcine PGCs [5]) of the same molecule?
Its value is “increased the number of PGCs surviving in culture”.
